From patent publication US20230143604A1, “QW DOSING OF GIP RECEPTOR AGONIST PEPTIDE COMPOUNDS AND USES THEREOF” (TAKEDA PHARMACEUTICAL COMPANY LIMITED, priority 2020, published 2023)
Starred links: 1 amine or outer side, 2 acyl side, 3 side chain; linkers in the order of their positions; H or OH if unused. Non-standard residues stand in square brackets, D forms with d. Residues, ends and D or L forms follow the SMILES beside them. Groups on a side chain read outwards from the residue. *: point of attachment. C20 diacid = O=C(O)CCCCCCCCCCCCCCCCCCC(=O)*; C18 diacid = O=C(O)CCCCCCCCCCCCCCCCC(=O)*; γGlu = O=C(O)[C@H](CCC(=O)[*:2])N[*:1]; NMeY = CN[C@@H](Cc1ccc(O)cc1)C(=O)O; AEEA = NCCOCCOCC(=O)O; Aib = CC(C)(N)C(=O)O

Assay: physchem
Summary of the method: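 3 mg of peptide treated with 100 μL portions of 200 mM phosphate buffer pH 7.4, sonicating/vortexing up to 1 min, with further buffer added until fully dissolved. Solubility then quantified by HPLC.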

Compound | solubility (pH 7.4) [mg/mL] | solubility (pH 7.4, aqueous buffer) [mg/mL]
CC[C@H](C)[C@H](NC(=O)[C@H](CO)NC(=O)[C@H](Cc1ccc(O)cc1)NC(=O)[C@H](CC(=O)O)NC(=O)[C@H](CO)NC(=O)[C@@H](NC(=O)[C@H](Cc1ccccc1)NC(=O)[C@@H](NC(=O)CNC(=O)[C@H](CCC(=O)O)NC(=O)C(C)(C)NC(=O)[C@@H](N)Cc1ccc(O)cc1)[C@@H](C)O)[C@@H](C)CC)C(=O)N[C@@H](C)C(=O)NC(C)(C)C(=O)N[C@@H](CC(=O)O)C(=O)N[C@@H](CCCCN)C(=O)N[C@@H](C)C(=O)N[C@@H](C)C(=O)N[C@@H](CCC(N)=O)C(=O)N[C@@H](CCC(N)=O)C(=O)N[C@@H](CCCCNC(=O)COCCOCCNC(=O)COCCOCCNC(=O)CC[C@H](NC(=O)CC[C@H](NC(=O)CCCCCCCCCCCCCCCCC(=O)O)C(=O)O)C(=O)O)C(=O)N[C@@H](Cc1ccccc1)C(=O)N[C@H](C(=O)N[C@@H](CCC(=O)O)C(=O)N[C@@H](Cc1c[nH]c2ccccc12)C(=O)N[C@@H](CC(C)C)C(=O)N[C@@H](CC(C)C)C(=O)N[C@@H](C)C(=O)N[C@@H](CCC(N)=O)C(=O)N[C@@H](CCCNC(=N)N)C(=O)NCC(=O)O)C(C)C [Compound 157] (H-Y[Aib]EGTFISDYSIA[Aib]DKAAQQK([AEEA-AEEA-γGlu-γGlu-C18 diacid])FVEWLLAQRG-OH) | ≥ 15 | ≥ 30
CC[C@H](C)[C@H](NC(=O)[C@H](CO)NC(=O)[C@H](Cc1ccc(O)cc1)NC(=O)[C@H](CC(=O)O)NC(=O)[C@H](CO)NC(=O)[C@@H](NC(=O)[C@H](Cc1ccccc1)NC(=O)[C@@H](NC(=O)CNC(=O)[C@H](CCC(=O)O)NC(=O)C(C)(C)NC(=O)[C@@H](N)Cc1ccc(O)cc1)[C@@H](C)O)[C@@H](C)CC)C(=O)N[C@@H](C)C(=O)NC(C)(C)C(=O)N[C@@H](CC(=O)O)C(=O)N[C@@H](CCCCN)C(=O)N[C@@H](C)C(=O)N[C@@H](C)C(=O)N[C@@H](CCC(N)=O)C(=O)N[C@@H](C)C(=O)N[C@@H](CCCCNC(=O)COCCOCCNC(=O)COCCOCCNC(=O)CC[C@H](NC(=O)CC[C@H](NC(=O)CCCCCCCCCCCCCCCCC(=O)O)C(=O)O)C(=O)O)C(=O)N[C@@H](Cc1ccccc1)C(=O)N[C@H](C(=O)N[C@@H](CCC(=O)O)C(=O)N[C@@H](Cc1c[nH]c2ccccc12)C(=O)N[C@@H](CC(C)C)C(=O)N[C@@H](CC(C)C)C(=O)N[C@@H](C)C(=O)N[C@@H](CCC(N)=O)C(=O)N[C@@H](CCCNC(=N)N)C(=O)NCC(=O)O)C(C)C [Compound 158] (H-Y[Aib]EGTFISDYSIA[Aib]DKAAQAK([AEEA-AEEA-γGlu-γGlu-C18 diacid])FVEWLLAQRG-OH) | ≥ 15 | ≥ 30
CC[C@H](C)[C@H](NC(=O)[C@H](Cc1ccccc1)NC(=O)[C@@H](NC(=O)CNC(=O)[C@H](CCC(=O)O)NC(=O)C(C)(C)NC(=O)[C@H](Cc1ccc(O)cc1)NC)[C@@H](C)O)C(=O)N[C@@H](CO)C(=O)N[C@@H](CC(=O)O)C(=O)N[C@@H](Cc1ccc(O)cc1)C(=O)N[C@@H](CO)C(=O)N[C@H](C(=O)NC(C)(C)C(=O)N[C@@H](CC(C)C)C(=O)N[C@@H](CC(=O)O)C(=O)N[C@@H](CCCNC(=N)N)C(=O)NC(C)(C)C(=O)N[C@@H](C)C(=O)N[C@@H](CCC(N)=O)C(=O)NC(C)(C)C(=O)N[C@@H](CCCCNC(=O)COCCOCCNC(=O)COCCOCCNC(=O)CC[C@H](NC(=O)CC[C@H](NC(=O)CCCCCCCCCCCCCCCCCCC(=O)O)C(=O)O)C(=O)O)C(=O)N[C@@H](Cc1ccccc1)C(=O)N[C@H](C(=O)N[C@@H](CC(N)=O)C(=O)N[C@@H](Cc1c[nH]c2ccccc12)C(=O)N[C@@H](CC(C)C)C(=O)N[C@@H](CC(C)C)C(=O)N[C@@H](C)C(=O)N[C@@H](CCC(N)=O)C(=O)N[C@@H](CCCNC(=N)N)C(=O)NCC(=O)O)C(C)C)[C@@H](C)CC [Compound 159] (H-[NMeY][Aib]EGTFISDYSI[Aib]LDR[Aib]AQ[Aib]K([AEEA-AEEA-γGlu-γGlu-C20 diacid])FVNWLLAQRG-OH) | ≥ 15 | ≥ 30
CC[C@H](C)[C@H](NC(=O)[C@H](CO)NC(=O)[C@H](Cc1ccc(O)cc1)NC(=O)[C@H](CC(=O)O)NC(=O)[C@H](CO)NC(=O)[C@@H](NC(=O)[C@H](Cc1ccccc1)NC(=O)[C@@H](NC(=O)CNC(=O)[C@H](CCC(=O)O)NC(=O)C(C)(C)NC(=O)[C@@H](N)Cc1ccc(O)cc1)[C@@H](C)O)[C@@H](C)CC)C(=O)N[C@@H](C)C(=O)N[C@@H](CC(C)C)C(=O)N[C@@H](CC(=O)O)C(=O)N[C@@H](CCCCN)C(=O)N[C@H](C(=O)N[C@@H](CCCCNC(=O)COCCOCCNC(=O)COCCOCCNC(=O)CC[C@H](NC(=O)CCCCCCCCCCCCCCCCC(=O)O)C(=O)O)C(=O)N[C@@H](CCC(N)=O)C(=O)NC(C)(C)C(=O)N[C@@H](CC(=O)O)C(=O)N[C@@H](Cc1ccccc1)C(=O)N[C@H](C(=O)N[C@@H](CCC(=O)O)C(=O)N[C@@H](Cc1c[nH]c2ccccc12)C(=O)N[C@@H](CC(C)C)C(=O)N[C@@H](CC(C)C)C(=O)N[C@@H](C)C(=O)N[C@@H](CCC(N)=O)C(=O)N[C@@H](CCCNC(=N)N)C(=O)NCC(=O)O)C(C)C)[C@@H](C)CC [Compound 160] (H-Y[Aib]EGTFISDYSIALDKIK([AEEA-AEEA-γGlu-C18 diacid])Q[Aib]DFVEWLLAQRG-OH) | ≥ 15 | ≥ 30
CC[C@H](C)[C@H](NC(=O)[C@H](CO)NC(=O)[C@H](Cc1ccc(O)cc1)NC(=O)[C@H](CC(=O)O)NC(=O)[C@H](CO)NC(=O)[C@@H](NC(=O)[C@H](Cc1ccccc1)NC(=O)[C@@H](NC(=O)CNC(=O)[C@H](CCC(=O)O)NC(=O)C(C)(C)NC(=O)[C@@H](N)Cc1ccc(O)cc1)[C@@H](C)O)[C@@H](C)CC)C(=O)N[C@@H](C)C(=O)N[C@@H](CC(C)C)C(=O)N[C@@H](CC(=O)O)C(=O)N[C@@H](CCCCN)C(=O)N[C@@H](C)C(=O)N[C@@H](CCCCNC(=O)COCCOCCNC(=O)COCCOCCNC(=O)CC[C@H](NC(=O)CCCCCCCCCCCCCCCCC(=O)O)C(=O)O)C(=O)N[C@@H](CCC(N)=O)C(=O)NC(C)(C)C(=O)N[C@@H](CC(=O)O)C(=O)N[C@@H](Cc1ccccc1)C(=O)N[C@H](C(=O)N[C@@H](CCC(=O)O)C(=O)N[C@@H](Cc1c[nH]c2ccccc12)C(=O)N[C@@H](CC(C)C)C(=O)N[C@@H](CC(C)C)C(=O)N[C@@H](C)C(=O)N[C@@H](CCC(N)=O)C(=O)N[C@@H](CCCNC(=N)N)C(=O)NCC(=O)O)C(C)C [Compound 161] (H-Y[Aib]EGTFISDYSIALDKAK([AEEA-AEEA-γGlu-C18 diacid])Q[Aib]DFVEWLLAQRG-OH) | ≥ 15 | ≥ 30
CC[C@H](C)[C@H](NC(=O)[C@H](CO)NC(=O)[C@H](Cc1ccc(O)cc1)NC(=O)[C@H](CC(=O)O)NC(=O)[C@H](CO)NC(=O)[C@@H](NC(=O)[C@H](Cc1ccccc1)NC(=O)[C@@H](NC(=O)CNC(=O)[C@H](CCC(=O)O)NC(=O)C(C)(C)NC(=O)[C@@H](N)Cc1ccc(O)cc1)[C@@H](C)O)[C@@H](C)CC)C(=O)N[C@@H](C)C(=O)N[C@@H](CC(C)C)C(=O)N[C@@H](CC(=O)O)C(=O)N[C@@H](CCCCN)C(=O)NC(C)(C)C(=O)N[C@@H](CCCCNC(=O)COCCOCCNC(=O)COCCOCCNC(=O)CC[C@H](NC(=O)CCCCCCCCCCCCCCCCC(=O)O)C(=O)O)C(=O)N[C@@H](CCC(N)=O)C(=O)N[C@@H](C)C(=O)N[C@@H](CC(=O)O)C(=O)N[C@@H](Cc1ccccc1)C(=O)N[C@H](C(=O)N[C@@H](CCC(=O)O)C(=O)N[C@@H](Cc1c[nH]c2ccccc12)C(=O)N[C@@H](CC(C)C)C(=O)N[C@@H](CC(C)C)C(=O)N[C@@H](C)C(=O)N[C@@H](CCC(N)=O)C(=O)N[C@@H](CCCNC(=N)N)C(=O)NCC(=O)O)C(C)C [Compound 162] (H-Y[Aib]EGTFISDYSIALDK[Aib]K([AEEA-AEEA-γGlu-C18 diacid])QADFVEWLLAQRG-OH) | ≥ 15 | ≥ 30
CC[C@H](C)[C@H](NC(=O)[C@H](CO)NC(=O)[C@H](Cc1ccc(O)cc1)NC(=O)[C@H](CC(=O)O)NC(=O)[C@H](CO)NC(=O)[C@@H](NC(=O)[C@H](Cc1ccccc1)NC(=O)[C@@H](NC(=O)CNC(=O)[C@H](CCC(=O)O)NC(=O)C(C)(C)NC(=O)[C@@H](N)Cc1ccc(O)cc1)[C@@H](C)O)[C@@H](C)CC)C(=O)N[C@@H](C)C(=O)N[C@@H](CC(C)C)C(=O)N[C@@H](CC(=O)O)C(=O)N[C@@H](CCCCN)C(=O)NC(C)(C)C(=O)N[C@@H](CCCCNC(=O)COCCOCCNC(=O)COCCOCCNC(=O)CC[C@H](NC(=O)CCCCCCCCCCCCCCCCC(=O)O)C(=O)O)C(=O)N[C@@H](CCC(N)=O)C(=O)N[C@@H](C)C(=O)N[C@@H](CC(N)=O)C(=O)N[C@@H](Cc1ccccc1)C(=O)N[C@H](C(=O)N[C@@H](CCC(=O)O)C(=O)N[C@@H](Cc1c[nH]c2ccccc12)C(=O)N[C@@H](CC(C)C)C(=O)N[C@@H](CC(C)C)C(=O)N[C@@H](C)C(=O)N[C@@H](CCC(N)=O)C(=O)N[C@@H](CCCNC(=N)N)C(=O)NCC(=O)O)C(C)C [Compound 163] (H-Y[Aib]EGTFISDYSIALDK[Aib]K([AEEA-AEEA-γGlu-C18 diacid])QANFVEWLLAQRG-OH) | ≥ 15 | ≥ 30
CC[C@H](C)[C@H](NC(=O)[C@H](CO)NC(=O)[C@H](Cc1ccc(O)cc1)NC(=O)[C@H](CC(=O)O)NC(=O)[C@H](CO)NC(=O)[C@@H](NC(=O)[C@H](Cc1ccccc1)NC(=O)[C@@H](NC(=O)CNC(=O)[C@H](CCC(=O)O)NC(=O)C(C)(C)NC(=O)[C@@H](N)Cc1ccc(O)cc1)[C@@H](C)O)[C@@H](C)CC)C(=O)N[C@@H](C)C(=O)NC(C)(C)C(=O)N[C@@H](CC(=O)O)C(=O)N[C@@H](CCCCN)C(=O)N[C@@H](C)C(=O)N[C@@H](CCCCNC(=O)COCCOCCNC(=O)COCCOCCNC(=O)CC[C@H](NC(=O)CCCCCCCCCCCCCCCCC(=O)O)C(=O)O)C(=O)N[C@@H](CCC(N)=O)C(=O)N[C@@H](CCC(N)=O)C(=O)N[C@@H](CC(=O)O)C(=O)N[C@@H](Cc1ccccc1)C(=O)N[C@H](C(=O)N[C@@H](CCC(=O)O)C(=O)N[C@@H](Cc1c[nH]c2ccccc12)C(=O)N[C@@H](CC(C)C)C(=O)N[C@@H](CC(C)C)C(=O)N[C@@H](C)C(=O)N[C@@H](CCC(N)=O)C(=O)N[C@@H](CCCNC(=N)N)C(=O)NCC(=O)O)C(C)C [Compound 164] (H-Y[Aib]EGTFISDYSIA[Aib]DKAK([AEEA-AEEA-γGlu-C18 diacid])QQDFVEWLLAQRG-OH) | ≥ 15 | ≥ 30
